Holding throughout (assay): NCI anticancer screen, dose series, 48 h
Assay [1] relates to 786-0.
Assay [2] relates to A549.
For assay [3], the system named is ACHN.
Assay [4] concerns HOP-92.
For assay [5], the system named is KM12.
Assay [6] has as its system LOX IMVI.
Assay [7] has as its system M14.
In assay [8] the test system is MCF7.
In assay [9] the test system is MDA-N.
For assay [10], the system named is OVCAR-5.
Assay [11] relates to PC-3.
The test system of assay [12] is RPMI-8226.
The subject of assay [13] is RXF 393.
For assay [14], the system named is SK-MEL-2.
For assay [15], the system named is SK-MEL-5.
The subject of assay [16] is SN12C.
The test system of assay [17] is SNB-19.
Assay [18] concerns SR.
The test system of assay [19] is TK-10.

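Assay format: 96-well plates, 48-hour exposure. GI50 marks 50% less growth.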 The source made the active and inactive calls. No stated cut-off is given here; in the data, active = GI50 up to about 1.1 µM and inactive = higher. Non-standard residues stand in square brackets, D forms with d. Residues, ends and D or L forms follow the SMILES beside them. ξ: configuration not given here. *: point of attachment. NMeY = CN[C@@H](Cc1ccc(O)cc1)C(=O)O; Cbz = O=C(OCc1ccccc1)*; ξA = CC(N)C(=O)O Bounds are passed on as bounds.

With `C=C(C(=O)O[C@H]1C(=O)C2=C(C)CCC3C(=C)C(=O)O[C@@H]3C2[C@]1(C)O)C1CC[C@]2(C)CCCC(=C)[C@H]2C1` (stereo not given in full), the GI50 in assay [1] is 1.88 µM (inactive); in assay [2], 8.89 µM (inactive); in assay [3], 4.58 µM (inactive); in assay [4], 5.08 µM (inactive); in assay [5] it was 6.85 µM (inactive); in [6], 3.18 µM (inactive). The GI50 in [7] was 7.62 µM (inactive); in assay [8], 3.32 µM (inactive); in [9], 2.71 µM (inactive); in [10], 17.7 µM (inactive); in assay [11] it was 5.45 µM (inactive); in [12], 3.46 µM (inactive). Besides, the GI50 in [13] was 0.0246 µM (active); in [14], 8.45 µM (inactive); in assay [15], 12.2 µM (inactive); in assay [16] it was 2.48 µM (inactive); in [17], 13.1 µM (inactive); in [18] it was 7.4 µM (inactive). In addition, the GI50 in [19] is 2.55 µM (inactive).
`CC(C)(C)OC(=O)N1CC(CCl)c2ccc(O)cc21` (stereo not given): the GI50 was 3.74 µM (inactive) in assay [1]; 3.12 µM (inactive) in [2]; 1.11 µM (active) in assay [3]; 2.42 µM (inactive) in [4]; 2.1 µM (inactive) in assay [5]; 1.76 µM (inactive) in assay [6]. Besides, the GI50 in [7] is 1.72 µM (inactive); in [8], 0.753 µM (active); in assay [9], 1.86 µM (inactive); in assay [10], 3.27 µM (inactive); in assay [11] it was 1.87 µM (inactive); in assay [12], 1.75 µM (inactive). The GI50 in [13] is 0.693 µM (active); in [14] it was 1.7 µM (inactive); in assay [15], 1.35 µM (inactive); in assay [16], 3.23 µM (inactive); in [17], 3.32 µM (inactive); in assay [18], 1.45 µM (inactive). Further, the GI50 in assay [19] was 2.4 µM (inactive).
Regarding `COc1ccc(C2C3CCc4ccccc4C3=NN2S(=O)(=O)c2ccc(/C=C/C(=O)O)cc2)cc1` (stereo not given), the GI50 is 1.82 µM (inactive) in assay [1]; 5.11 µM (inactive) in [2]; 3.21 µM (inactive) in assay [3]; 11.6 µM (inactive) in assay [4]; 1.82 µM (inactive) in [5]; 4.73 µM (inactive) in assay [6]. Also, the GI50 is 4.75 µM (inactive) in assay [7]; 2.1 µM (inactive) in assay [8]; 1.42 µM (inactive) in [9]; 9.91 µM (inactive) in assay [10]; 3.98 µM (inactive) in [11]; 3.07 µM (inactive) in [12]. Further, the GI50 was 3.15 µM (inactive) in assay [13]; 2.71 µM (inactive) in assay [14]; 4.01 µM (inactive) in assay [15]; 6.25 µM (inactive) in assay [16]; 7.29 µM (inactive) in assay [17]; 0.869 µM (active) in assay [18]. In addition, the GI50 in assay [19] was 6.79 µM (inactive).
As for `CC(=O)Oc1ccc2c(c1)c1c(=O)oc(N(C)C)nc1n2Cc1ccccc1`, the GI50 in assay [1] is 50.9 µM (inactive); in assay [2], 48.4 µM (inactive); in assay [3] it was 45.3 µM (inactive); in [4] it was 19.5 µM (inactive); in assay [5], 56.6 µM (inactive); in assay [6] it was 49.7 µM (inactive). The GI50 in [7] is > 78.7 µM (inactive); in [8] it was 25.2 µM (inactive); in assay [9] it was > 71.4 µM (inactive); in assay [10] it was > 100 µM (inactive); in assay [11], > 61.4 µM (inactive); in assay [12], > 65 µM (inactive). For the same compound, the GI50 is 52.5 µM (inactive) in [13]; > 76.6 µM (inactive) in assay [14]; 42 µM (inactive) in assay [15]; > 100 µM (inactive) in assay [16]; > 100 µM (inactive) in [17]; 43.1 µM (inactive) in [18]. The GI50 in [19] is > 100 µM (inactive).
`OCCCCCNc1cc(O)nc(O)n1`: the GI50 in [1], in assay [2], in assay [3], in assay [4], in assay [5] and in assay [6] was > 100 µM (inactive) throughout. For the same compound, the GI50 in assay [7], in assay [8], in assay [9], in assay [10], in assay [11] and in assay [12] was > 100 µM (inactive) in each case. The GI50 in assay [13], in assay [14], in assay [15], in [16], in assay [17] and in [18] was > 100 µM (inactive) in each case. Besides, the GI50 in assay [19] was > 100 µM (inactive).
As for `O=c1ssc2c1Nc1c(ssc1=O)S2`, the GI50 in [1] is 3.87 µM (inactive); in assay [2], 19.2 µM (inactive); in assay [3] it was 16.6 µM (inactive); in assay [4], 15 µM (inactive); in assay [5], 14.4 µM (inactive); in [6] it was 5.37 µM (inactive). Further, the GI50 was 11.7 µM (inactive) in assay [7]; 16.4 µM (inactive) in assay [8]; 16.1 µM (inactive) in assay [9]; 17 µM (inactive) in assay [10]; 12.6 µM (inactive) in [11]; 5.04 µM (inactive) in [12]. The GI50 in assay [13] is 4.42 µM (inactive); in [14] it was 16.1 µM (inactive); in [15], 15.7 µM (inactive); in assay [16] it was 14.4 µM (inactive); in assay [17], 17.9 µM (inactive); in assay [18], 1.96 µM (inactive). Moreover, in [19], the GI50 was 16 µM (inactive).
For the compound `COc1ccc(C[C@@H](C(=O)NCC(N)=O)N(C)C(=O)[C@@H]2CCCN2C(=O)[C@H](CC(C)C)NC(=O)C(C)NC(=O)OCc2ccccc2)cc1` (stereo not given in full) (Cbz-[ξA]LP[NMeY](Me)G-NH2), the GI50 in assay [1], in assay [2], in assay [3], in assay [4], in assay [5] and in assay [6] was > 100 µM (inactive) each time. For the same compound, the GI50 in [7], in [8], in assay [9], in assay [10], in assay [11] and in assay [12] was > 100 µM (inactive) in each case. In addition, the GI50 in assay [13], in assay [14], in assay [15], in assay [16], in assay [17] and in assay [18] was > 100 µM (inactive) each time. In [19], the GI50 was > 100 µM (inactive).
For `COc1cc2nc(-c3ccccc3F)nc(O)c2cc1OC`, the GI50 in assay [1], in assay [2], in [3], in [4], in assay [5] and in assay [6] was > 100 µM (inactive) throughout. Moreover, the GI50 in assay [7] is > 100 µM (inactive); in [8], 86.9 µM (inactive); in assay [9] it was > 100 µM (inactive); in assay [10], > 100 µM (inactive); in assay [11], > 100 µM (inactive); in assay [12], > 100 µM (inactive). Also, the GI50 is > 100 µM (inactive) in assay [13]; > 100 µM (inactive) in assay [14]; > 100 µM (inactive) in assay [15]; > 100 µM (inactive) in [16]; 63.8 µM (inactive) in assay [17]; > 100 µM (inactive) in assay [18]. Besides, in assay [19], the GI50 was > 100 µM (inactive).
`C=CCN1C(=O)/C(=C/c2ccc(OC)cc2)N=C1SC/C=C/C`: the GI50 in assay [1] was 34.7 µM (inactive); in assay [2] it was 18.9 µM (inactive); in assay [3], 56.4 µM (inactive); in assay [4] it was 24 µM (inactive); in assay [5], 28.8 µM (inactive); in assay [6], 31.6 µM (inactive). In addition, the GI50 was 54.7 µM (inactive) in assay [7]; 32.1 µM (inactive) in assay [8]; 26.7 µM (inactive) in assay [9]; > 100 µM (inactive) in assay [10]; 30.4 µM (inactive) in assay [11]; 26.2 µM (inactive) in assay [12]. The GI50 in [13] is 16.6 µM (inactive); in assay [14], 31.5 µM (inactive); in assay [15], 18.3 µM (inactive); in [16], 19.5 µM (inactive); in assay [17], 34.4 µM (inactive); in assay [18] it was 17.3 µM (inactive). Also, the GI50 in [19] was > 100 µM (inactive).
Consider `C=C(CN(CC)CC)C1(c2ccccc2)CC2(CCCC2)C(=O)O1` (stereo not given), for which the GI50 in [1] was > 100 µM (inactive); in assay [2], > 100 µM (inactive); in assay [3] it was > 100 µM (inactive); in assay [4], 28.6 µM (inactive); in assay [5], > 100 µM (inactive); in assay [6] it was > 100 µM (inactive). The GI50 in [7] is 45.5 µM (inactive); in [8] it was > 100 µM (inactive); in [9], > 100 µM (inactive); in assay [10] it was > 100 µM (inactive); in [11], 67 µM (inactive); in assay [12], 76.2 µM (inactive). The GI50 was > 100 µM (inactive) in [13]; > 100 µM (inactive) in [14]; 68.4 µM (inactive) in [15]; > 100 µM (inactive) in [16]; > 100 µM (inactive) in assay [17]; > 100 µM (inactive) in [18]. In addition, in [19], the GI50 was > 100 µM (inactive).

The values above are taken from ChEMBL document CHEMBL1201862, “PubChem BioAssay data set” (2004).
